Measurements published in patent US8361996B2, “Imidazolyl substituted steroidal and indan-1-one derivatives” (Council of Scientific and Industrial Research, priority 2005, dated 2013).
Like-named read-outs stand apart in the source and are kept apart here.

What was measured:
aromatase (CYP19) = biological target: T1, aromatase (CYP19) (Homo sapiens, UniProt P11511); assay: Inhibition of aromatase, human placental microsomes, 3H2O release; format: biochemical
T1 construct: The enzyme was obtained from the microsomal fraction of freshly delivered human term placental tissue; from tissue; host or cells: human term placenta, microsomal fraction
T1 sequence (P11511 1-503): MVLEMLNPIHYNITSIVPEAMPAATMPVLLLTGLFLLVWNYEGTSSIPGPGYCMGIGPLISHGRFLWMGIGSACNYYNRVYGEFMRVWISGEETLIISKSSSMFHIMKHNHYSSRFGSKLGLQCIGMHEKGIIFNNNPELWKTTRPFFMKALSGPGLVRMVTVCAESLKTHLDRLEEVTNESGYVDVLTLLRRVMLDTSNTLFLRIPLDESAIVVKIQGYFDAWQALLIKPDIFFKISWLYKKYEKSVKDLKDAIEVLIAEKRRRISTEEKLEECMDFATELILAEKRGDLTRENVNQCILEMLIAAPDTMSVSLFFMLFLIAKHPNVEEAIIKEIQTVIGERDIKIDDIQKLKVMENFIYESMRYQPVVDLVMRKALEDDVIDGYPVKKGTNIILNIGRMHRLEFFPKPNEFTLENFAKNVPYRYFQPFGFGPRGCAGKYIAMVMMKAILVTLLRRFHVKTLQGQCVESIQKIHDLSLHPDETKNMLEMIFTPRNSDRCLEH

[1] = human placental microsomes and [1β,2β-3H] testosterone
[2] = Substrate: 1β 3H-androstenedione/androstenedione 500 nm

SMILES	melting point [°C]	aromatase inhibitory activity (in words) (aromatase (CYP19); [1])	Inhibition on CYP19a RP: Relative potency; relative to aminoglutethimide (=1) (aromatase (CYP19); [2])	other results
CC(=O)O[C@H]1CC[C@@]2(C)C(=CC[C@H]3[C@@H]4C[C@H](n5ccnc5)[C@H](OC(C)=O)[C@@]4(C)CC[C@@H]32)C1	197 to 199	–	–	–
CC(=O)O[C@H]1CC[C@@]2(C)C(=CC[C@H]3[C@@H]4CC(=Cc5cccc(OCCCn6ccnc6)c5)[C@H](OC(C)=O)[C@@]4(C)CC[C@@H]32)C1	97 to 99	–	–	–
COc1cc(C=C2C[C@H]3[C@@H]4CC=C5C[C@@H](OC(C)=O)CC[C@]5(C)[C@H]4CC[C@]3(C)[C@H]2OC(C)=O)ccc1OCCCn1ccnc1	163 to 168	–	–	–
O=C1C(=Cc2cccc(OCCn3ccnc3)c2)Cc2ccccc21 [Compound 10, 2-[3-(2-Imidazol-1-ylethoxy)-benzylidene]indan-1-one]	218 to 220	–	–	–
C[C@]12CC[C@H]3[C@@H](CC=C4C[C@@H](O)CC[C@@]43C)[C@@H]1C/C(=C\c1cccc(OCCCn3ccnc3)c1)[C@@H]2O [Compound 20, 16-[3-{3-(imidazol-1-yl)propoxy}benzylidene]-5-androstene-3β,17β-diol]	133 to 135	significant aromatase inhibitory activity	–	Inhibition on CYP19a RP: Relative potency; relative to aminoglutethimide (=1) (aromatase (CYP19)): IC50: 9.1 μM RP: 3.3; IC50 (aromatase (CYP19); Substrate: 1β 3H-androstenedione/androstenedione 500 nm, read-out: Inhibition on CYP19a IC50): 9.1 µM
COc1cc(/C=C2\Cc3ccccc3C2=O)ccc1OCCCn1ccnc1 [Compound 8, 2-[4-(3-Imidazol-1-ylpropoxy)-3-methoxybenzylidene)indan-1-one]	123 to 127	good aromatase inhibitory activity	54.1	IC50 (aromatase (CYP19); human placental microsomes and [1β,2β-3H] testosterone, read-out: IC50 for the aromatase inhibitory activity): 0.55 µM
C[C@]12CC[C@H]3[C@@H](CC=C4C[C@@H](O)CC[C@@]43C)[C@@H]1C[C@H](n1ccnc1)[C@@H]2O	285 to 287	–	–	–
O=C1/C(=C/c2ccccc2OCCCn2ccnc2)Cc2ccccc21 [Compound 4, 2-[2-(3-Imidazol-1-yl-propoxy)-benzylidene]-indan-1-one]	76 to 78	good aromatase inhibitory activity	26.6	–
COc1cc(/C=C2\C[C@H]3[C@@H]4CC=C5C[C@@H](O)CC[C@]5(C)[C@H]4CC[C@]3(C)[C@H]2O)ccc1OCCCn1ccnc1 [Compound 14, 16-[4-{3-(Imidazol-1-yl)propoxy}-3-methoxybenzylidene]-5-androstene-3β,17β-diol]	–	significant aromatase inhibitory activity	12.4	–
O=C1/C(=C/c2cccc(OCCCn3ccnc3)c2)Cc2ccccc21 [Compound 2, 2-[3-(3-Imidazol-1-yl-propoxy)-benzylidene]-indan-1-one]	48 to 50	good aromatase inhibitory activity	42.5	–
COc1ccc(/C=C2\Cc3ccccc3C2=O)cc1OCCCn1ccnc1 [Compound 6, 2-[3-(3-Imidazol-1-ylpropoxy)-4-methoxybenzylidene)indan-1-one]	176 to 180	good aromatase inhibitory activity	22.5	–
COc1cc(C=C2C[C@H]3[C@@H]4CC=C5C[C@@H](O)CC[C@]5(C)[C@H]4CC[C@]3(C)C2=O)ccc1OCCCn1ccnc1	199 to 201	–	–	–
COc1cc(C=C2C[C@H]3[C@@H]4CC=C5C[C@@H](OC(C)=O)CC[C@]5(C)[C@H]4CC[C@]3(C)C2=O)ccc1OCCCn1ccnc1	109 to 111	–	–	–
CC(=O)O[C@H]1CC[C@@]2(C)C(=C/C(=N\OCCCn3ccnc3)[C@H]3[C@@H]4CC[C@H](OC(C)=O)[C@@]4(C)CC[C@@H]32)C1 [Compound 24, 7-[O-{3-(imidazol-1-yl)propyl}oximino]-5-androstene-3β,17β-diol diacetate]	180 to 182	significant aromatase inhibitory activity	IC50: 3.1 μM RP: 9.6	IC50 (aromatase (CYP19)): 3.1 µM
C[C@]12CCC(=O)C=C1CCC1C2CC[C@]2(C)C(=O)/C(=C/c3cccc(OCCCn4ccnc4)c3)CC12 (stereo partly drawn) [Compound 22, 16-[3-{3-(imidazol-1-yl)propoxy}benzylidene]-4-androstene-3,17-dione]	–	significant aromatase inhibitory activity	–	–
C[C@]12CC[C@H](O)CC1=CC[C@@H]1[C@@H]2CC[C@]2(C)C(=O)C(=Cc3cccc(OCCCn4ccnc4)c3)C[C@@H]12	211 to 212	–	–	–
C[C@]12CC[C@H]3[C@@H](/C(=N\OCCCn4ccnc4)C=C4C[C@@H](O)CC[C@@]43C)[C@@H]1CC[C@@H]2O [Compound 25, 7-[O-{3-(Imidazol-1-yl)propyl}oximino]-5-androstene-3β,17β-diol]	205 to 206	significant aromatase inhibitory activity	IC50: 12 μM RP: 2.5	IC50 (aromatase (CYP19)): 12 µM
C[C@]12CC[C@H](O)CC1=CC[C@@H]1[C@@H]2CC[C@]2(C)C(=O)[C@@H](n3ccnc3)C[C@@H]12 [Compound 27, 16β-(Imidazol-1-yl)-17-oxo-5-androsten-3β-ol]	249 to 251	significant aromatase inhibitory activity	IC50: 3.3 Mm RP: 9.0	–
